From ChEMBL document CHEMBL2440076, “New triarylpyrazoles as broad-spectrum anticancer agents: design, synthesis, and biological evaluation” (Eur J Med Chem, 2013)

Key:
HT-29 = assay: Growth inhibition of human HT-29 cells assessed as cell growth at 10 uM after 48 hrs by sulforhodamine B assay; assay type: functional; settings: HT-29, 48 h, read-out: Activity
786-0 = assay: Growth inhibition of human 786-0 cells after 48 hrs by sulforhodamine B assay; assay type: functional; settings: 786-0, 48 h
OVCAR-3 = assay: Growth inhibition of human OVCAR3 cells assessed as cell growth at 10 uM after 48 hrs by sulforhodamine B assay; assay type: functional; settings: OVCAR-3, 48 h, read-out: Activity
T47D = assay: Growth inhibition of human T47D cells after 48 hrs by sulforhodamine B assay; assay type: functional
SK-MEL-2 = assay: Growth inhibition of human SK-MEL-2 cells assessed as cell growth at 10 uM after 48 hrs by sulforhodamine B assay; assay type: functional; settings: SK-MEL-2, 48 h, read-out: Activity
NCI-H522 [1] = assay: Growth inhibition of human NCI-H522 cells assessed as cell growth at 10 uM after 48 hrs by sulforhodamine B assay; assay type: functional; settings: NCI-H522, 48 h, read-out: Activity
COLO 205 = assay: Growth inhibition of human COLO205 cells after 48 hrs by sulforhodamine B assay; assay type: functional; settings: COLO 205, 48 h
NCI-H23 = assay: Growth inhibition of human NCI-H23 cells assessed as cell growth at 10 uM after 48 hrs by sulforhodamine B assay; assay type: functional; settings: NCI-H23, 48 h, read-out: Activity
SK-MEL-28 = assay: Growth inhibition of human SK-MEL-28 cells after 48 hrs by sulforhodamine B assay; assay type: functional; settings: SK-MEL-28, 48 h
OVCAR-8 [2] = assay: Growth inhibition of human OVCAR8 cells assessed as cell growth at 10 uM after 48 hrs by sulforhodamine B assay; assay type: functional; settings: OVCAR-8, 48 h, read-out: Activity
HCT-15 [3] = assay: Growth inhibition of human HCT15 cells after 48 hrs by sulforhodamine B assay; assay type: functional; settings: HCT-15, 48 h
SF-539 = assay: Growth inhibition of human SF539 cells after 48 hrs by sulforhodamine B assay; assay type: functional; settings: SF-539, 48 h
LOX IMVI = assay: Growth inhibition of human LOXIMVI cells after 48 hrs by sulforhodamine B assay; assay type: functional
HOP-62 = assay: Growth inhibition of human HOP62 cells after 48 hrs by sulforhodamine B assay; assay type: functional; settings: HOP-62, 48 h
DU-145 = assay: Growth inhibition of human DU145 cells after 48 hrs by sulforhodamine B assay; assay type: functional; settings: DU-145, 48 h
M14 = assay: Growth inhibition of human M14 cells assessed as cell growth at 10 uM after 48 hrs by sulforhodamine B assay; assay type: functional; settings: M14, 48 h, read-out: Activity
KM12 = assay: Growth inhibition of human KM12 cells assessed as cell growth at 10 uM after 48 hrs by sulforhodamine B assay; assay type: functional; settings: KM12, 48 h, read-out: Activity
HL-60(TB) = assay: Growth inhibition of human HL-60(TB) cells after 48 hrs by sulforhodamine B assay; assay type: functional; settings: HL-60, 48 h
PC-3 = assay: Growth inhibition of human PC3 cells assessed as cell growth at 10 uM after 48 hrs by sulforhodamine B assay; assay type: functional; settings: PC-3, 48 h, read-out: Activity
NCI-H522 [4] = assay: Growth inhibition of human NCI-H522 cells after 48 hrs by sulforhodamine B assay; assay type: functional; settings: NCI-H522, 48 h
UO-31 = assay: Growth inhibition of human UO31 cells assessed as cell growth at 10 uM after 48 hrs by sulforhodamine B assay; assay type: functional; settings: UO-31, 48 h, read-out: Activity
BT-549 = assay: Growth inhibition of human BT549 cells after 48 hrs by sulforhodamine B assay; assay type: functional; settings: BT-549, 48 h
SW-620 = assay: Growth inhibition of human SW620 cells assessed as cell growth at 10 uM after 48 hrs by sulforhodamine B assay; assay type: functional; settings: SW-620, 48 h, read-out: Activity
K562 = assay: Growth inhibition of human K562 cells after 48 hrs by sulforhodamine B assay; assay type: functional; settings: K562, 48 h
MDA-MB-468 = assay: Growth inhibition of human MDA-MB-468 cells assessed as cell growth at 10 uM after 48 hrs by sulforhodamine B assay; assay type: functional; settings: MDA-MB-468, 48 h, read-out: Activity
CAKI-1 = assay: Growth inhibition of human CAKI-1 cells after 48 hrs by sulforhodamine B assay; assay type: functional; settings: CAKI-1, 48 h
MOLT-4 = assay: Growth inhibition of human MOLT4 cells assessed as cell growth at 10 uM after 48 hrs by sulforhodamine B assay; assay type: functional; settings: MOLT-4, 48 h, read-out: Activity
OVCAR-5 = assay: Growth inhibition of human OVCAR5 cells assessed as cell growth at 10 uM after 48 hrs by sulforhodamine B assay; assay type: functional; settings: OVCAR-5, 48 h, read-out: Activity
HCT-15 [5] = assay: Growth inhibition of human HCT15 cells assessed as cell growth at 10 uM after 48 hrs by sulforhodamine B assay; assay type: functional; settings: HCT-15, 48 h, read-out: Activity
RPMI-8226 = assay: Growth inhibition of human RPMI8226 cells assessed as cell growth at 10 uM after 48 hrs by sulforhodamine B assay; assay type: functional; settings: RPMI-8226, 48 h, read-out: Activity
NCI-H460 = assay: Growth inhibition of human NCI-H460 cells after 48 hrs by sulforhodamine B assay; assay type: functional; settings: NCI-H460, 48 h
SK-OV-3 = assay: Growth inhibition of human SKOV3 cells after 48 hrs by sulforhodamine B assay; assay type: functional; settings: SK-OV-3, 48 h
OVCAR-8 [6] = assay: Growth inhibition of human OVCAR8 cells after 48 hrs by sulforhodamine B assay; assay type: functional; settings: OVCAR-8, 48 h
HOP-92 = assay: Growth inhibition of human HOP92 cells after 48 hrs by sulforhodamine B assay; assay type: functional, cell-based; settings: HOP-92, 48 h
[7] = read-out: LC50 (the source's name)

SMILES: COc1cc(-c2nn(-c3cccc(NC(=O)Nc4cccc(C(F)(F)F)c4)c3)cc2-c2ccncc2)ccc1Cl
- growth at 10 µM (HT-29): -64%
- GI50 (786-0): 1.28 µM
- TGI (786-0): 4.05 µM
- CC50 (786-0; [7]): > 50 µM
- growth at 10 µM (OVCAR-3): -42%
- GI50 (T47D): 1.65 µM
- TGI (T47D): > 50 µM
- CC50 (T47D; [7]): 50 µM
- growth at 10 µM (SK-MEL-2): -71.2%
- growth at 10 µM (NCI-H522 [1]): -30.8%
- GI50 (COLO 205): 0.894 µM
- LC50 (concentration killing 50% of cells) (COLO 205): 3.43 µM
- TGI (COLO 205): 1.75 µM
- growth at 10 µM (NCI-H23): -12.4%
- GI50 (SK-MEL-28): 1.12 µM
- LC50 (SK-MEL-28): 21.1 µM
- TGI (SK-MEL-28): 3.35 µM
- growth at 10 µM (OVCAR-8 [2]): -36.2%
- GI50 (HCT-15 [3]): 0.87 µM
- LC50 (HCT-15 [3]): 50 µM
- TGI (HCT-15 [3]): 5.42 µM
- GI50 (SF-539): 0.89 µM
- LC50 (concentration killing 50% of cells) (SF-539): 21 µM
- TGI (SF-539): 2.42 µM
- GI50 (LOX IMVI): 0.789 µM
- LC50 (LOX IMVI): 3.46 µM
- TGI (LOX IMVI): 1.65 µM
- GI50 (HOP-62): 1.34 µM
- TGI (HOP-62): 4.07 µM
- CC50 (HOP-62; [7]): > 50 µM
- GI50 (DU-145): 1.67 µM
- LC50 (DU-145): > 50 µM
- TGI (DU-145): > 50 µM
- growth at 10 µM (M14): -61.5%
- growth at 10 µM (KM12): -27.8%
- GI50 (HL-60(TB)): 1.37 µM
- TGI (HL-60(TB)): > 50 µM
- CC50 (HL-60(TB); [7]): > 50 µM
- growth at 10 µM (PC-3): -23%
- GI50 (NCI-H522 [4]): 0.714 µM
- LC50 (concentration killing 50% of cells) (NCI-H522 [4]): > 50 µM
- TGI (NCI-H522 [4]): 2.43 µM
- growth at 10 µM (UO-31): 7.94%
- GI50 (BT-549): 1.25 µM
- LC50 (50% lethal concentration) (BT-549): 50 µM
- TGI (BT-549): 3.81 µM
- growth at 10 µM (SW-620): 8.92%
- GI50 (K562): 0.584 µM
- TGI (K562): > 50 µM
- CC50 (K562; [7]): > 50 µM
- growth at 10 µM (MDA-MB-468): -27.6%
- GI50 (CAKI-1): 1.03 µM
- TGI (CAKI-1): 3.51 µM
- CC50 (CAKI-1; [7]): > 50 µM
- growth at 10 µM (MOLT-4): -26.3%
- growth at 10 µM (OVCAR-5): 28.2%
- growth at 10 µM (HCT-15 [5]): 5.28%
- growth at 10 µM (RPMI-8226): -14.8%
- GI50 (NCI-H460): 0.763 µM
- LC50 (NCI-H460): > 50 µM
- TGI (NCI-H460): 3.53 µM
- GI50 (SK-OV-3): 2.02 µM
- TGI (SK-OV-3): > 50 µM
- CC50 (SK-OV-3; [7]): > 50 µM
- GI50 (OVCAR-8 [6]): 0.739 µM
- TGI (OVCAR-8 [6]): 2.7 µM
- CC50 (OVCAR-8 [6]; [7]): > 50 µM
- GI50 (HOP-92): 0.557 µM
- IC50 (HOP-92): 0.56 µM
- LC50 (HOP-92): > 50 µM
- TGI (HOP-92): 1.77 µM
